The target of this assay is Carbonic anhydrase 9 (Homo sapiens, UniProt Q16790). The assay can be described thus: Inhibition of human recombinant carbonic anhydrase 9 catalytic domain preincubated for 15 mins by CO2 hydration method.

A word on the Ki: it is the equilibrium dissociation constant of an inhibitor or competing ligand from its target.

The structures appear in SMILES notation.

Consider `COc1ccc2c(CC(=O)Nc3ccc(S(N)(=O)=O)cc3)cc(=O)oc2c1`, for which the Ki is 87 nM.
For the compound `COc1ccc2c(CC(=O)Nc3cccc(S(N)(=O)=O)c3)cc(=O)oc2c1`, the Ki turned out to be 59 nM.
With `COc1ccc2c(CC(=O)Nc3cc(C(F)(F)F)c(S(N)(=O)=O)cc3S(N)(=O)=O)cc(=O)oc2c1`, the inhibitory constant (Ki) was 14 nM.

The record behind these values is ChEMBL document CHEMBL1177692 (Bioorg Med Chem, 2010).
